Columns and labels:
hERG channel = biological target: T1, hERG channel (Homo sapiens, UniProt Q12809); assay: hERG patch clamp assay; format: cell-based; conditions: HEK293 cells stably expressing hERG; whole-cell patch clamp, 26.5-28.5° C.
T1 construct: expressed in transfected cells
Protocol: To determine the potential of compounds to inhibit the hERG channel, the cloned counterpart of the […] delayed rectifier potassium current (IKr), HEK293 cells stably expressing the hERG channel were used in whole-cell patch clamp electrophysiology studies at ambient temperature (26.5-28.5° C.). The methodology for stable transfection of this channel in HEK293 cells can be found elsewhere (Zhou et al 1998, Biophysical Journal, 74, pp 230-241). The solutions used for experimentation were standard extracellular solution of the following composition (mM); NaCl, 137; KCl, 4; CaCl2, 1.8; MgCl2, 1; Glucose, 10; HEPES, 10; pH 7.4±0.05 with NaOH/HCl; and standard intracellular solution of the following composition (mM); KCl 130; MgCl2, 1; HEPES, 10; EGTA, 5; MgATP, 5; pH 7.2±0.05 with KOH. The voltage protocol applied was designed to activate the hERG channel and allow the measurement of drug block of the channel and is as follows. First the membrane potential was stepped from a holding potential of −80 mV to +30 mV for 1s. This was followed by a descending voltage ramp at a rate of 0.5 mV/ms back to holding potential of −80 mV and the peak outward current observed during the repolarizing ramp was measured. This protocol was evoked repeatedly every 4 seconds (0.25 Hz). […]

[1] = biological target: T2, human histamine H3 receptor (Homo sapiens, UniProt Q9Y5N1); assay: H3 cell based functional assay (cAMP, β-lactamase reporter gene)
T2 construct: expressed in transfected cells; host or cells: HEK-293 cells expressing a CRE beta-lactamase reporter gene
T2 sequence (Q9Y5N1 whole entry): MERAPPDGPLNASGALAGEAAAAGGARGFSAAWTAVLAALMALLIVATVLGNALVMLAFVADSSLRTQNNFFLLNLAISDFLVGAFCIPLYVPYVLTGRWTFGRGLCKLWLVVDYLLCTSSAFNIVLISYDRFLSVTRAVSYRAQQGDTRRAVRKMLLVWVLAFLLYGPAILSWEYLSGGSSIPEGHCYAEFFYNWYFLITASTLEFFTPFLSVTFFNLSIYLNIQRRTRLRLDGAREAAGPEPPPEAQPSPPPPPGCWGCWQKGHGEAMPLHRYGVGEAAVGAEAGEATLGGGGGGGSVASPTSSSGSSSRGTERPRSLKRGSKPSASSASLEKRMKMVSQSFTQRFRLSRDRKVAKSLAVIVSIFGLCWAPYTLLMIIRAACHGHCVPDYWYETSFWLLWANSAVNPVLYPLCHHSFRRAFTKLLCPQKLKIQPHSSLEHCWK
Protocol: The compound was evaluated using a cell based functional assay measuring cAMP through β-lactamase reporter gene activity. A stable cell line was generated from HEK-293 cells expressing a CRE β-lactamase reporter gene and transfected with human histamine H3 receptor cDNA. Cells were seeded at a density of 500,000 cells/ml, and grown overnight in MEM (Invitrogen) supplemented with 1% dialysed FBS (Sigma), 2 mM glutamine (Sigma), 1 mM sodium pyruvate (Sigma), 0.1 mM non essential amino acids (Invitrogen) and 25 mM HEPES (Sigma) in poly D lysine coated 384 well plates (BD Biosciences). […] For IC50 determination, the test compound was prepared in PBS (Sigma) and DMSO (Sigma) at a dose response of 5×10^−10 to 5×10^−5 M with a final DMSO concentration in the assay of 0.5%. Cells were incubated for 15 minutes plus/minus compound and their ability to permit 10 μM forskolin-stimulated cAMP synthesis in the presence of 1 nM imetit was measured as described above.

T1 sequence (Q12809 whole entry): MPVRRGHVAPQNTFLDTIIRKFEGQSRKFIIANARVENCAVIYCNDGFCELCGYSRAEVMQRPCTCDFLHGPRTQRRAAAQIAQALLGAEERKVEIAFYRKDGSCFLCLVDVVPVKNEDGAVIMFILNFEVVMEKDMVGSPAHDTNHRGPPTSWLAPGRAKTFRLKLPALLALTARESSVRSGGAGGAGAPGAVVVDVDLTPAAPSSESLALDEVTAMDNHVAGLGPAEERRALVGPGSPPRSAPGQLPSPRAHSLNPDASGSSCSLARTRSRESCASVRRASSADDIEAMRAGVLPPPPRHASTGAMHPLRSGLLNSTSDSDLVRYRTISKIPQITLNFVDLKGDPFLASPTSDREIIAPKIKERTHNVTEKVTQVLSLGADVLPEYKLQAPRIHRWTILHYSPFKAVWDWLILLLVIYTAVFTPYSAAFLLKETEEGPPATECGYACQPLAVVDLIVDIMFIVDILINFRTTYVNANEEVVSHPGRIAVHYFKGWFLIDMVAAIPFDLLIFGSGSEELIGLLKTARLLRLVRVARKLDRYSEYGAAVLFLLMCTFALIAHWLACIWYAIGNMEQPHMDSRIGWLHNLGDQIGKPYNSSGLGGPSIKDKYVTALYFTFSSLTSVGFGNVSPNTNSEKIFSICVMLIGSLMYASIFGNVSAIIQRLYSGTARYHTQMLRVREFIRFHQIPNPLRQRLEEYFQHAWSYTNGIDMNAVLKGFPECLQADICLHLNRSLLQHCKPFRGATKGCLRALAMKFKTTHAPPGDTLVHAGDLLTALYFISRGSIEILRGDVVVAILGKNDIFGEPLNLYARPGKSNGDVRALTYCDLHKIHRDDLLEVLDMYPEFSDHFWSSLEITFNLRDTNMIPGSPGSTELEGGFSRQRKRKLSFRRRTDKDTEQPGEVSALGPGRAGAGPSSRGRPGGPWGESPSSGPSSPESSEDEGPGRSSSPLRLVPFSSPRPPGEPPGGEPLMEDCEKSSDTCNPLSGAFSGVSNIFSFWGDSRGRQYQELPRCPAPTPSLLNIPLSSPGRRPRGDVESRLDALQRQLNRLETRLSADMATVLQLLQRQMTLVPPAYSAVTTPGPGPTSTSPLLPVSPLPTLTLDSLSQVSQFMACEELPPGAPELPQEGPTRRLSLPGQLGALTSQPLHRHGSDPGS

Which IC50 (hERG channel) does the source give for `CC(C)N1CCC(Oc2ccc3c(n2)CCN(c2ccc(C(N)=O)cn2)C3)CC1` [Example 1, 6-[2-(1-Isopropyl-piperidin-4-yloxy)-7,8-dihydro-5H-[1,6]naphthyridin-6-yl]-nicotinamide] here?
Its IC50 is 22200 nM.

And the Ki ([1]; HEK-293 CRE β-lactamase cells, antagonism of 1 nM imetit, 10 μM forskolin, Ki calculated from IC50 by the Cheng-Prussoff equation)?
The Ki was 2.6 nM.

How did the EC50 [1] turn out when `N=C(N)SCCc1cnc[nH]1` [imetit, reference compound] was run?
The EC50 was 0.35 nM.

Source: patent US20070179175A1, “Tetrahydronaphthyridine Derivative” (priority 2005, published 2007)
